For 17 compounds, IC50 results are on record in patent US8901118B2, “Compounds and methods for kinase modulation, and indications therefor” (Plexxikon Inc., priority 2010, dated 2014).

Bounds are passed on as bounds.

One test has as its target T1, BCR-KIT BaF3 cells (Homo sapiens, UniProt P10721).
T1 construct: fused on or other part: P11274 (Breakpoint cluster region protein)
Put plainly: BaF3 BCR-KIT cell proliferation assay (ATPlite). It is filed as cell-based. The settings on record: read-out: Inhibition of Cell Proliferation IC50, BCR/BaF3 Kit. In a few lines:
(§1)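 For these proliferation assays, engineered BaF3 cells (10,000/well, IL-3 withdrawn) and MV-4-11 cells (25,000/well) received compound serially diluted 1:3 from 10 μM over 8 points, with DMSO as control. After three days of culture, ATP content was measured by luminescence to derive IC50.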

The target of the next test is T2, BCR-NTRK1 BaF3 cells (Homo sapiens, UniProt P04629).
T2 construct: fused on or other part: P11274 (Breakpoint cluster region protein)
Put plainly: BaF3 BCR-NTRK1 cell proliferation assay (ATPlite). It is filed as cell-based. The settings on record: read-out: Inhibition of Cell Proliferation IC50, BCR/BaF3 TrkA. The essentials:
as §1

For a further test, the target named is T3, BCR-NTRK3 BaF3 cells (Homo sapiens, UniProt Q16288).
T3 construct: fused on or other part: P11274 (Breakpoint cluster region protein)
Put plainly: BaF3 BCR-NTRK3 cell proliferation assay (ATPlite). The class given is cell-based. The settings on record: read-out: Inhibition of Cell Proliferation IC50, BCR/BaF3 TrkC. The essentials:
as §1

A further test has as its target CYP3A4(BFC) (Homo sapiens, UniProt P08684). Put plainly: CYP3A4(BFC) inhibition. The class given is in vitro ADME. The settings on record: CYP3A4, substrate BFC; read-out: Cyp IC50 3A4(BFC). In a few lines: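 This fluorescence assay tracks how test compounds reduce CYP3A4 turnover of BFC, with enzyme and substrate from BD Biosciences. A 10-point 1:1 dilution series in cofactor mix (1.3% NADPH Regeneration Solution A, 1.04% Solution B, 5% acetonitrile, 0.05% DMSO) was dispensed at 10 μL into 384 well plates, preincubated 10 minutes at 37° C, then incubated 30 min and read on a Tecan Safire 2.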

T1 sequence (P10721 589-937): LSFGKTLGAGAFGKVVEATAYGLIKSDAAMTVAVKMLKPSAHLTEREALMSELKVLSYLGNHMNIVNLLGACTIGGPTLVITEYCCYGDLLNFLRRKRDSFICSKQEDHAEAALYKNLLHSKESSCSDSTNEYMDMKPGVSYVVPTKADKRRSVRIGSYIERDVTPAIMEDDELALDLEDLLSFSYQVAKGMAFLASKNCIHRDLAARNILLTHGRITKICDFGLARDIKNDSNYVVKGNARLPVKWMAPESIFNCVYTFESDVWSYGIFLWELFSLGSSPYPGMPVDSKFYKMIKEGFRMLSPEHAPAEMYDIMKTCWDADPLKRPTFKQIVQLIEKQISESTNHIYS
Chain of CYP3A4(BFC) (P08684 whole entry): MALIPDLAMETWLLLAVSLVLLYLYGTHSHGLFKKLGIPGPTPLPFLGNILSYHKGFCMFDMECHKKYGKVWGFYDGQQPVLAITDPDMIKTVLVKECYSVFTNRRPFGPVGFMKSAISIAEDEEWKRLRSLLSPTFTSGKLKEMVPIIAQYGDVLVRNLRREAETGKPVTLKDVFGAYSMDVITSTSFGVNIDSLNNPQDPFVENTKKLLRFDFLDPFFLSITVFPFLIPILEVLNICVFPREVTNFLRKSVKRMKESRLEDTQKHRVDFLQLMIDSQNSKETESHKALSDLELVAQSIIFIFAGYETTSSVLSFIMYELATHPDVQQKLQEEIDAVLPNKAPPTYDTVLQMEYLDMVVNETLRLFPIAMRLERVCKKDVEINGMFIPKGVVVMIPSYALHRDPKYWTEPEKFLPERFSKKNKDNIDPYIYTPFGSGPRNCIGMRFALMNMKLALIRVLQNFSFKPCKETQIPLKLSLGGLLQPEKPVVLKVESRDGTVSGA
T2 sequence (P04629 510-781): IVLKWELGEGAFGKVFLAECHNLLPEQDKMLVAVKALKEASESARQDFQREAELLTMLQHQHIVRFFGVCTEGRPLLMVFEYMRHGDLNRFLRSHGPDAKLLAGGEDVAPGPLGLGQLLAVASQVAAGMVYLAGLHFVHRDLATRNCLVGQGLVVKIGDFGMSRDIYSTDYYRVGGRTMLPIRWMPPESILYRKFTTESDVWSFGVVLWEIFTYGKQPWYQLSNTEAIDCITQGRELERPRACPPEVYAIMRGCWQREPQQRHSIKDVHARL
T3 sequence (Q16288 whole entry, the tested form may be a part): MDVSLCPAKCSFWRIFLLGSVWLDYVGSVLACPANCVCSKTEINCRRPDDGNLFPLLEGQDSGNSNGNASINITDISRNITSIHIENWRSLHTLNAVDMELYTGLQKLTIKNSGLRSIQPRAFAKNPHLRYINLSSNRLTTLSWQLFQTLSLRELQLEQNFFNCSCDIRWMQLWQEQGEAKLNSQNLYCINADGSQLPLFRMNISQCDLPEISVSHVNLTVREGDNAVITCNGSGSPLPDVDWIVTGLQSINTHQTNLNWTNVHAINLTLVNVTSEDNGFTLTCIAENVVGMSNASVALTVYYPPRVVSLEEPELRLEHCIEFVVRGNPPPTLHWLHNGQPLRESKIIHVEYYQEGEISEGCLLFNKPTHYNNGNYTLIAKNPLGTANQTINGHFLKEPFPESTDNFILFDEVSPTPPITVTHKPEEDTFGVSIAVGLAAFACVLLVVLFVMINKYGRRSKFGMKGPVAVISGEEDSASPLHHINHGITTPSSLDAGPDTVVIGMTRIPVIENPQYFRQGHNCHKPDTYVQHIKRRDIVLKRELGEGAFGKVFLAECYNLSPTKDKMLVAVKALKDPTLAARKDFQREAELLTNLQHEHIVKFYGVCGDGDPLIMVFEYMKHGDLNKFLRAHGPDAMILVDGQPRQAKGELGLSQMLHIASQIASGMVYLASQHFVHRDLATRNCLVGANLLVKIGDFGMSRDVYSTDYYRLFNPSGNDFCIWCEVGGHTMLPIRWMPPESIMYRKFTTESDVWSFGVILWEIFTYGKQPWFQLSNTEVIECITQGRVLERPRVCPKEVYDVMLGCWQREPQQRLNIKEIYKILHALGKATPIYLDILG

In the case of `CCc1ccc(Nc2ccc(C(=O)c3c[nH]c4ncnc(NC5CCC5)c34)c(F)n2)cn1` [Compound P-4095, [4-(cyclobutylamino)-7H-pyrrolo[2,3-d]pyrimidin-5-yl]-[6-[(6-ethyl-3-pyridyl)amino]-2-fluoro-3-pyridyl]methanone], the IC50 on BCR-KIT BaF3 cells was below 100 nM; at BCR-NTRK1 BaF3 cells, below 10 nM; on BCR-NTRK3 BaF3 cells it was below 10 nM; on CYP3A4(BFC) it was above 10000 nM.
Consider `COc1cncc(Nc2ccc(C(=O)c3c[nH]c4ncnc(NCC(F)(F)F)c34)c(F)n2)c1` [Compound P-4103, [2-fluoro-6-[(5-methoxy-3-pyridyl)amino]-3-pyridyl]-[4-(2,2,2-trifluoroethylamino)-7H-pyrrolo[2,3-d]pyrimidin-5-yl]methanone], for which the IC50 on BCR-KIT BaF3 cells was above 1000 nM; on BCR-NTRK1 BaF3 cells, below 1000 nM; on BCR-NTRK3 BaF3 cells, above 1000 nM; on CYP3A4(BFC) it was above 10000 nM.
As to `COc1cncc(Nc2ccc(C(=O)c3c[nH]c4ncnc(NC5CCCCC5)c34)c(F)n2)c1` [Compound P-4104, [4-(cyclohexylamino)-7H-pyrrolo[2,3-d]pyrimidin-5-yl]-[2-fluoro-6-[(5-methoxy-3-pyridyl)amino]-3-pyridyl]methanone], the IC50 at BCR-KIT BaF3 cells is above 1000 nM; on BCR-NTRK1 BaF3 cells, below 100 nM; on BCR-NTRK3 BaF3 cells it was below 100 nM; on CYP3A4(BFC) it was above 10000 nM.
For the compound `CCCNc1ncnc2[nH]cc(C(=O)c3ccc(Nc4cncc(OC)c4)nc3F)c12` [Compound P-4105, [2-fluoro-6-[(5-methoxy-3-pyridyl)amino]-3-pyridyl]-[4-(propylamino)-7H-pyrrolo[2,3-d]pyrimidin-5-yl]methanone], the IC50 was above 1000 nM on BCR-KIT BaF3 cells, below 100 nM on BCR-NTRK1 BaF3 cells, below 1000 nM at BCR-NTRK3 BaF3 cells and above 10000 nM on CYP3A4(BFC).
Regarding `COc1cncc(Nc2ccc(C(=O)c3c[nH]c4ncnc(NC(C)C)c34)c(F)n2)c1` [Compound P-4106, [2-fluoro-6-[(5-methoxy-3-pyridyl)amino]-3-pyridyl]-[4-(isopropylamino)-7H-pyrrolo[2,3-d]pyrimidin-5-yl]methanone], the IC50 at BCR-KIT BaF3 cells was below 1000 nM; on BCR-NTRK1 BaF3 cells, below 100 nM; at BCR-NTRK3 BaF3 cells, below 10 nM; on CYP3A4(BFC), above 10000 nM.
Taken in the same sequence, the figures for `COc1cncc(Nc2ccc(C(=O)c3c[nH]c4ncnc(NC5CC5)c34)c(F)n2)c1` [Compound P-4107, [4-(cyclopropylamino)-7H-pyrrolo[2,3-d]pyrimidin-5-yl]-[2-fluoro-6-[(5-methoxy-3-pyridyl)amino]-3-pyridyl]methanone] were below 1000 nM, below 100 nM, below 10 nM and above 10000 nM.
With `CNc1ncnc2[nH]cc(C(=O)c3ccc(Nc4cncc(OC)c4)nc3F)c12` [Compound P-4108, [2-fluoro-6-[(5-methoxy-3-pyridyl)amino]-3-pyridyl]-[4-(methylamino)-7H-pyrrolo[2,3-d]pyrimidin-5-yl]methanone], the IC50 is above 1000 nM on BCR-KIT BaF3 cells, below 1000 nM at BCR-NTRK1 BaF3 cells, below 100 nM on BCR-NTRK3 BaF3 cells and above 10000 nM on CYP3A4(BFC).
Taken in the same sequence, the figures for `Cc1ccc(Nc2ccc(C(=O)c3c[nH]c4ncnc(NC5CCCCC5)c34)c(F)n2)cn1` [Compound P-4111, [4-(cyclohexylamino)-7H-pyrrolo[2,3-d]pyrimidin-5-yl]-[2-fluoro-6-[(6-methyl-3-pyridyl)amino]-3-pyridyl]methanone] were below 1000 nM, below 10 nM, below 10 nM and above 10000 nM.
For the compound `Cc1ccc(Nc2ccc(C(=O)c3c[nH]c4ncnc(NCC(F)(F)F)c34)c(F)n2)cn1` [Compound P-4112, [2-fluoro-6-[(6-methyl-3-pyridyl)amino]-3-pyridyl]-[4-(2,2,2-trifluoroethylamino)-7H-pyrrolo[2,3-d]pyrimidin-5-yl]methanone], the IC50 on BCR-KIT BaF3 cells is above 1000 nM; on BCR-NTRK1 BaF3 cells, below 100 nM; at BCR-NTRK3 BaF3 cells, below 10 nM; at CYP3A4(BFC) it was above 10000 nM.
Take `CNc1ncnc2[nH]cc(C(=O)c3ccc(Nc4ccc(C)nc4)nc3F)c12` [Compound P-4115, [2-fluoro-6-[(6-methyl-3-pyridyl)amino]-3-pyridyl]-[4-(methylamino)-7H-pyrrolo[2,3-d]pyrimidin-5-yl]methanone]: the IC50 was below 1000 nM at BCR-KIT BaF3 cells, below 100 nM on BCR-NTRK1 BaF3 cells, below 10 nM at BCR-NTRK3 BaF3 cells and above 10000 nM at CYP3A4(BFC).
Take `CCc1ccc(Nc2ccc(C(=O)c3c[nH]c4ncnc(NC5CCOCC5)c34)c(F)n2)cn1` [Compound P-4116, [6-[(6-ethyl-3-pyridyl)amino]-2-fluoro-3-pyridyl]-[4-(tetrahydropyran-4-ylamino)-7H-pyrrolo[2,3-d]pyrimidin-5-yl]methanone]: the IC50 on BCR-KIT BaF3 cells is below 100 nM; at BCR-NTRK1 BaF3 cells, below 10 nM; on BCR-NTRK3 BaF3 cells, below 10 nM; on CYP3A4(BFC) it was above 10000 nM.
As to `CCc1ccc(Nc2ccc(C(=O)c3c[nH]c4ncnc(NC(C)C)c34)c(F)n2)cn1` [Compound P-4117, [6-[(6-ethyl-3-pyridyl)amino]-2-fluoro-3-pyridyl]-[4-(isopropylamino)-7H-pyrrolo[2,3-d]pyrimidin-5-yl]methanone], the IC50 on BCR-KIT BaF3 cells was below 100 nM; at BCR-NTRK1 BaF3 cells, below 10 nM; on BCR-NTRK3 BaF3 cells, below 10 nM; at CYP3A4(BFC) it was above 10000 nM.
As for `CCc1ccc(Nc2ccc(C(=O)c3c[nH]c4ncnc(NCC5CC5)c34)c(F)n2)cn1` [Compound P-4118, [4-(cyclopropylmethylamino)-7H-pyrrolo[2,3-d]pyrimidin-5-yl]-[6-[(6-ethyl-3-pyridyl)amino]-2-fluoro-3-pyridyl]methanone], the IC50 at BCR-KIT BaF3 cells was below 100 nM; on BCR-NTRK1 BaF3 cells, below 10 nM; at BCR-NTRK3 BaF3 cells it was below 10 nM; at CYP3A4(BFC), above 10000 nM.
In the case of `CCc1ccc(Nc2ccc(C(=O)c3c[nH]c4ncnc(NCCOC)c34)c(F)n2)cn1` [Compound P-4119, [6-[(6-ethyl-3-pyridyl)amino]-2-fluoro-3-pyridyl]-[4-(2-methoxyethylamino)-7H-pyrrolo[2,3-d]pyrimidin-5-yl]methanone], the IC50 on BCR-KIT BaF3 cells was below 100 nM; at BCR-NTRK1 BaF3 cells, below 10 nM; on BCR-NTRK3 BaF3 cells it was below 10 nM; on CYP3A4(BFC) it was above 10000 nM.
As for `CCc1ccc(Nc2ccc(C(=O)c3c[nH]c4ncnc(NCC(F)(F)F)c34)c(F)n2)cn1` [Compound P-4120, [6-[(6-ethyl-3-pyridyl)amino]-2-fluoro-3-pyridyl]-[4-(2,2,2-trifluoroethylamino)-7H-pyrrolo[2,3-d]pyrimidin-5-yl]methanone], the IC50 at BCR-KIT BaF3 cells was below 1000 nM; at BCR-NTRK1 BaF3 cells, below 10 nM; on BCR-NTRK3 BaF3 cells, below 10 nM; on CYP3A4(BFC), above 10000 nM.
On to `CCc1ccc(Nc2ccc(C(=O)c3c[nH]c4ncnc(NCC(C)C)c34)c(F)n2)cn1` [Compound P-4121, [6-[(6-ethyl-3-pyridyl)amino]-2-fluoro-3-pyridyl]-[4-(isobutylamino)-7H-pyrrolo[2,3-d]pyrimidin-5-yl]methanone], for which the IC50 at BCR-KIT BaF3 cells was below 100 nM; on BCR-NTRK1 BaF3 cells, below 10 nM; on BCR-NTRK3 BaF3 cells, below 10 nM; at CYP3A4(BFC) it was above 10000 nM.
As for `CCCNc1ncnc2[nH]cc(C(=O)c3ccc(Nc4ccc(CC)nc4)nc3F)c12` [Compound P-4122, [6-[(6-ethyl-3-pyridyl)amino]-2-fluoro-3-pyridyl]-[4-(propylamino)-7H-pyrrolo[2,3-d]pyrimidin-5-yl]methanone], the IC50 on BCR-KIT BaF3 cells is below 100 nM; on BCR-NTRK1 BaF3 cells it was below 10 nM; on BCR-NTRK3 BaF3 cells it was below 10 nM; on CYP3A4(BFC) it was above 10000 nM.
